Measured values published in patent publication US20050214384A1, “Chromium compositions and methods for using the same for inhibiting drug-induced insulin resistance” (priority 2002, published 2005).
Read-outs that look alike come from different tables or passages of the source.

Columns and labels:
rats [1] = conditions: oral CrCl3; cited from earlier work
rats [2] = conditions: cited from earlier work
[3] = test system: subjects taking statin drugs; assay: Clinical trial of chromium picolinate on statin-induced insulin resistance (Example 1); format: in vivo, human; conditions: 400 μg chromium, one capsule a day orally, approximately six months, versus statin drug without chromium supplementation
Method: The effect of a chromium complex in inhibiting drug-induced insulin resistance is evaluated. Specifically, the effects of chromium picolinate on insulin sensitivity and vascular reactivity in subjects taking statin drugs are evaluated.
A clinical trial is initiated which includes approximately 80 male and female subjects between the ages of 35 and 65. The subject population is characterized as individuals suffering from moderate hypercholesterolemia and moderate high blood pressure. All subjects have been diagnosed with hypercholesterolemia. LDLC based on 75th percentile (>140-165 mg/dL) and HDL-C: <30 mg/dL. […]
Study visits are scheduled at the start of the study to record baseline information on the subjects and every two weeks thereafter. The following physiological conditions are measured prior to administration of the supplement as a baseline and at regular intervals during the course of the study: Glycated hemoglobin, fasting insulin, fasting plasma glucose levels, total cholesterol, triglycerides, LDL, HDL, urinalysis (routine), CBC, and serum chemistry, as well as blood pressure and body weight. In addition, insulin sensitivity is measured according to the euglycemic-hyperinsulinemic glucose clamp technique specified by R. A. DeFronzo et al. Glucose Clamp Technique: A Method for Quantifying Insulin Secretion and Resistance, 237 Am. […]

Compound: CC(=O)Oc1ccccc1C(=O)O [aspirin]
- effect on chromium absorption (rats [1]): facilitated

Compound: [Cl][Cr]([Cl])[Cl] [chromium chloride]
- toxic effects (rats [2]; levels several thousand times the upper limit of the ESADDI for chromium for humans (based on body weight)): without toxic effects

Compound: chromium picolinate
- incidence of drug-induced insulin resistance [3]: lower incidence of drug-induced insulin resistance
- toxic effects (rats [2]; rat, in vivo): without toxic effects
